Laboratory results as given in the supplement of paper PMC10307832.

What was measured:
Test in all cases: relative viability (nuclei count vs DMSO), 5 days (fraction); higher = more cells survive
[1] = compound: CC1(COc2ccc3c(c2)ncn3-c2ccc3cccc(N4CCC(N)CC4)c3n2)COC1 [Crenolanib] + Nc1ncn([C@H]2C[C@H](O)[C@@H](CO)O2)c(=O)n1 [Decitabine] (partner 2 µM)
Outline: (§1)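 Dosing by pin tool came one day after lung cancer cell lines were seeded in 1536-well plates, using either one drug or a fixed anchor-drug dose plus five library-drug doses (not always all listed) in √10 steps. After 5 days, nuclei were counted on 4× images. Relative viability is treated-well nuclei count divided by vehicle-well nuclei count, and values are medians of duplicate plates.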

[2] = compound: CC1(COc2ccc3c(c2)ncn3-c2ccc3cccc(N4CCC(N)CC4)c3n2)COC1 [Crenolanib] + CCNC(=O)c1noc(-c2cc(C(C)C)c(O)cc2O)c1-c1ccc(CN2CCOCC2)cc1 [Luminespib] (partner 0.01 µM)
Outline: as §1

[3] = compound: CC1(COc2ccc3c(c2)ncn3-c2ccc3cccc(N4CCC(N)CC4)c3n2)COC1 [Crenolanib] + N=C(N)NC(=N)NCCc1ccccc1 [Phenformin] (partner 250 µM)
Outline: as §1

[4] = compound: O=C1NC(=O)[C@@H](c2cn3c4c(cccc24)CCC3)[C@@H]1c1c[nH]c2ccccc12 [Tivantinib] + C[C@]1(O)C[C@@H](c2nc(-c3ccc4ccc(-c5ccccc5)nc4c3)c3c(N)nccn32)C1 [Linsitinib] (partner 1 µM)
Outline: as §1

Cell Line	relative viability ([1]; first compound 0.01 µM)	relative viability ([1]; first compound 0.03162 µM)	relative viability ([1]; first compound 0.1 µM)	relative viability ([1]; first compound 0.3162 µM)	relative viability ([1]; first compound 1 µM)	relative viability ([2]; first compound 0.01 µM)	relative viability ([2]; first compound 0.03162 µM)	relative viability ([2]; first compound 0.1 µM)	relative viability ([2]; first compound 0.3162 µM)	relative viability ([2]; first compound 1 µM)	relative viability ([3]; first compound 0.01 µM)	relative viability ([3]; first compound 0.03162 µM)	relative viability ([3]; first compound 0.1 µM)	relative viability ([3]; first compound 0.3162 µM)	relative viability ([3]; first compound 1 µM)	relative viability ([4]; first compound 0.01 µM)	relative viability ([4]; first compound 0.03162 µM)	relative viability ([4]; first compound 0.1 µM)	relative viability ([4]; first compound 0.3162 µM)
LOU-NH91	0.863	0.792	0.822	0.856	0.853	0.326	0.304	0.33	0.303	0.317	0.862	0.657	0.711	0.667	0.692	0.859	0.884	0.958	0.536
H3255	0.674	0.629	0.588	0.587	0.652	0.963	1.06	0.986	0.917	0.854	0.432	0.326	0.386	0.321	0.35	0.95	0.864	0.943	
NCI-H1975	0.376	0.475	0.412	0.375	0.349	0.337	0.22	0.182	0.269	0.185	0.419	0.402	0.389	0.429	0.409	0.875	0.919	0.938	0.598
NCI-H3122	0.433	0.424	0.468	0.546	0.478	0.0862	0.0824	0.0708	0.0964	0.0864	0.383	0.344	0.368	0.313	0.318	0.939	0.946	0.973	0.968
NCI-H441	0.259	0.276	0.277	0.251	0.243	0.387	0.393	0.333	0.433	0.359	0.771	0.881	0.955	0.936	0.633	0.383	0.508	0.563	0.463
NCI-H1395	0.754	0.674	0.739	0.695	0.669	0.686	0.803	0.698	0.763	0.58	0.448	0.455	0.497	0.469	0.436	1.1	1.22	0.926	0.857
LC-2-ad	0.833	0.844	0.759	0.818	0.78	1.07	0.929	0.955	0.963	0.756	0.648	0.562	0.573	0.536	0.446	0.917	0.772	0.837	0.741
NCI-H358	0.17	0.194	0.233	0.21	0.188	1.3	0.307	0.232	0.343	0.337	0.372	0.321	0.3	0.292	0.239	0.725	0.717	0.617	0.328
PC-14	0.167	0.195	0.212	0.21	0.226	0.126		0.154	0.118	0.146	0.628	0.46	0.544	0.473	0.314	0.941	0.923	0.931	0.892
